Each block holds one compound with its values, some of them ahead of it.
Tests used:
[1] = Measurement of decomposition point (TG-DTA); assay type: physicochemical; settings: TG-DTA up to 800° C. at 10° C./minute, extrapolation temperature of the peak of the TG curve
Description: About 5 mg of each of color materials A to S of Examples 1 to 9 and Comparative examples 1 to 10, was put in a quartz pan, and measured by means of a differential thermogravimetric analyzer (TG-DTA) (product name; TG8120; manufactured by: Rigaku Corporation) up to 800° C. at a heating rate of 10° C./minute, placing alumina on the quartz pan as a reference. The extrapolation temperature of the peak of the thus-obtained TG curve was used as the decomposition point. The temperature of the decomposition point can be used as an indicator of heat resistance.

[2] = Measurement of thermal stability (weight reduction rate, TG-DTA); assay type: physicochemical; settings: heated to 230° C. at 10° C./minute, kept 60 minutes at 230° C.
Description: About 5 mg of each of color materials A to S of Examples 1 to 9 and Comparative examples 1 to 10, was put in a quartz pan and heated up to 230° C. at a heating rate of 10° C./minute, placing alumina on the quartz pan as a reference, by means of a differential thermogravimetric analyzer (TG-DTA) (product name; TG8120; manufactured by: Rigaku Corporation). After reaching 230° C., the temperature was kept for 60 minutes at 230° C. Then, a weight reduction rate was measured. The weight reduction rate was calculated by the following formula and can be used as an indicator of heat resistance. Weight reduction rate=(weight before heating−weight after heating)/weight before heating×100(%)

Compound: CCN(CC)c1ccc(C(=C2C=CC(=[N+](CC)CC)C=C2)c2ccc(NCc3ccc(CNc4ccc(C(=C5C=CC(=[N+](CC)CC)C=C5)c5ccc(N(CC)CC)cc5)c5ccccc45)cc3)c3ccccc23)cc1 [Color material B]
Decomposition point ([1]; listed as B): 258 °C
Weight reduction rate ([2]; listed as B): −10.7%

Compound: CCN(CC)c1ccc(C(=C2C=CC(=[N+](CC)CC)C=C2)c2ccc(NCc3ccc(CNc4ccc(C(=C5C=CC(=[N+](CC)CC)C=C5)c5ccc(N(CC)CC)cc5)c5ccccc45)cc3)c3ccccc23)cc1 [Color material J]
Decomposition point ([1]; listed as J): 248 °C
Weight reduction rate ([2]; listed as J): −35.1%

Compound: CCNc1ccc(C(=C2C=CC(=[N+](CC)CC)C=C2)c2ccc(N(CC)CC)cc2)c2ccccc12 [Color material K]
Decomposition point ([1]; listed as K): 237 °C
Weight reduction rate ([2]; listed as K): −32.8%

Compound: CCNc1ccc(C(=C2C=CC(=[N+](CC)CC)C=C2)c2ccc(N(CC)CC)cc2)c2ccccc12 [Color material L]
Decomposition point ([1]; listed as L): 241 °C
Weight reduction rate ([2]; listed as L): −31.8%

Compound: CCN(CC)c1ccc(C(=C2C=CC(=[N+](CC)CC)C=C2)c2ccc(NCc3ccc(CNc4ccc(C(=C5C=CC(=[N+](CC)CC)C=C5)c5ccc(N(CC)CC)cc5)c5ccccc45)cc3)c3ccccc23)cc1 [Color material A]
Decomposition point ([1]; listed as A): 253 °C
Weight reduction rate ([2]; listed as A): −19.1%

Other lines, results leading:

Decomposition point ([1]; listed as Q): 258 °C
Weight reduction rate ([2]; listed as Q): −30.1%
Compound: CCNc1ccc(C(=C2C=CC(=[N+](CC)CC)C=C2)c2ccc(N(CC)CC)cc2)c2ccccc12 [Color material Q]

Decomposition point ([1]; listed as R): 259 °C
Weight reduction rate ([2]; listed as R): −30.5%
Compound: CCNc1ccc(C(=C2C=CC(=[N+](CC)CC)C=C2)c2ccc(N(CC)CC)cc2)c2ccccc12 [Color material R]

Decomposition point ([1]; listed as N): 251 °C
Weight reduction rate ([2]; listed as N): −38.3%
Compound: CCNc1ccc(C(=C2C=CC(=[N+](CC)CC)C=C2)c2ccc(N(CC)CC)cc2)c2ccccc12 [Color material N]
